# Measurements as given in PMC4470473 (Cancer cell, 2015).
# Where two headings read alike, the source gives them in different places.
# Key:
# [1] = system: H460 or DMS53 cells expressing Bcl2 shRNA1; experiment: Rescue of Bcl2-silenced cells with exogenous WT or AAAA Bcl2; format: cell-based, human
# [2] = cited from earlier work
# Bfl-1/A1 = Bfl-1/A1 (Homo sapiens, UniProt Q16548); experiment: Fluorescence polarization assay; format: binding
# MEF cells = experiment: Apoptotic effect on WT and Bax knockout MEF cells; format: cell-based
# [3] = system: mitochondria isolated from H1299 cells; experiment: Cyt c release from isolated mitochondria; format: biochemical, human; conditions: 1μM, 30 min, 30°C
# SCLC PDX = experiment: Patient-derived xenograft; format: in vivo, Nu/Nu nude mice; conditions: 20mg/kg/d i.p., 2 weeks
# H1299 cells = experiment: Cell survival of H1299 cells overexpressing exogenous WT or mutant Bcl2; format: cell-based, human
# D31A Bcl2 mutant = D31A Bcl2 mutant (Homo sapiens, UniProt P10415, D31A); experiment: Competitive fluorescence polarization assay; format: binding
# Bcl2 (WT) = Bcl2 (WT) (Homo sapiens, UniProt P10415); experiment: Competitive fluorescence polarization assay with fluorescent Bak peptide; format: binding
# R12A Bcl2 mutant = R12A Bcl2 mutant (Homo sapiens, UniProt P10415, R12A); experiment: Competitive fluorescence polarization assay; format: binding
# Bcl2 ΔBH3 = experiment: Fluorescence polarization assay; format: binding; conditions: deletion of BH3
# Plasmid pUC19 DNA = experiment: Electrophoretic mobility shift assay; format: binding
# [4] = system: H460 lung cancer xenografts; experiment: H460 lung cancer xenografts
# [5] = system: H460, H157, DMS53, DMS153 and H146 cells expressing Bcl2 shRNA; experiment: Apoptosis; format: cell-based, human; conditions: 1μM, 72 hr; Bcl2 shRNA1, shRNA2 or shRNA3
# [6] = biological target: D10A/N11A/R12A/E13A (AAAA) Bcl2 mutant (Homo sapiens, UniProt P10415, D10A/E13A/N11A/R12A); experiment: Competitive fluorescence polarization assay; format: binding
# Bcl2 ΔBH4 = Bcl2 ΔBH4 (Homo sapiens, UniProt P10415, DEL6-31); experiment: Fluorescence polarization assay; format: binding; conditions: BH4 domain deficient Bcl2
# H460 cells [7] = experiment: Bcl2/IP3R interaction and Ca2+ release; format: cell-based, human; conditions: increasing concentrations, 24h
# [8] = biological target: Purified recombinant Bcl2 protein (Homo sapiens, UniProt P10415); experiment: Cell-free Bcl2 conformational change, IP with anti-Bcl2/BH3 domain antibody; format: biochemical; conditions: cell-free system
# [9] = system: NSCLC and SCLC cell lines; experiment: Cell growth; format: cell-based, human
# [10] = system: normal small airway epithelial cell line (SAEC); experiment: Annexin-V/PI cell viability in normal cells; format: cell-based; conditions: 1μM, 72 hr
# H20A Bcl2 mutant = H20A Bcl2 mutant (Homo sapiens, UniProt P10415, H20A); experiment: Competitive fluorescence polarization assay; format: binding
# Bcl2 ΔBH2 = experiment: Fluorescence polarization assay; format: binding; conditions: deletion of BH2
# Bcl-XL = Bcl-XL (Homo sapiens, UniProt Q07817); experiment: Fluorescence polarization assay; format: binding
# H460 cells [11] = experiment: Autophagy; format: cell-based, human
# [12] = Maximum tolerated dose, 12-day daily i.p. treatment; format: in vivo
# M16A Bcl2 mutant = M16A Bcl2 mutant (Homo sapiens, UniProt P10415, M16A); experiment: Competitive fluorescence polarization assay; format: binding
# Mcl-1 = Mcl-1 (Homo sapiens, UniProt Q07820); experiment: Fluorescence polarization assay; format: binding
# purified recombinant Bax = experiment: Cell-free Bax activation, IP with 6A7 Bax antibody; format: biochemical; conditions: for direct Bax activation: Bax without Bcl2
# H460 cells [13] = experiment: SRB growth assay, single agents and combination; format: cell-based, human
# Bcl2 ΔBH1 = experiment: Fluorescence polarization assay; format: binding; conditions: deletion of BH1
# D10A Bcl2 mutant = D10A Bcl2 mutant (Homo sapiens, UniProt P10415, D10A); experiment: Competitive fluorescence polarization assay; format: binding
# N11A Bcl2 mutant = N11A Bcl2 mutant (Homo sapiens, UniProt P10415, N11A); experiment: Competitive fluorescence polarization assay; format: binding
# E13A Bcl2 mutant = E13A Bcl2 mutant (Homo sapiens, UniProt P10415, E13A); experiment: Competitive fluorescence polarization assay; format: binding
# Single-dose MTD = format: in vivo
# K17A Bcl2 mutant = K17A Bcl2 mutant (Homo sapiens, UniProt P10415, K17A); experiment: Competitive fluorescence polarization assay; format: binding
# H460 cells [14] = experiment: Bcl2 expression by Western blot after mTOR inhibition; format: cell-based, human; conditions: increasing concentrations, 24 hr
# Bcl2 = Bcl2 expression by IHC in tumor tissues of NSCLC patients; format: in vivo, human; conditions: 5 or 10mg/day orally, 28 days, 10 NSCLC patients
# A549 cells = experiment: Bcl2 expression by Western blot after mTOR inhibition; format: cell-based, human; conditions: increasing concentrations, 24 hr
# [15] = exogenous AAAA Bcl2 mutant, 72 hr
# [16] = 10, 20, 30mg/kg/d i.p., 14 days
# Sequence of Mcl-1 (Q07820 whole entry, species assumed): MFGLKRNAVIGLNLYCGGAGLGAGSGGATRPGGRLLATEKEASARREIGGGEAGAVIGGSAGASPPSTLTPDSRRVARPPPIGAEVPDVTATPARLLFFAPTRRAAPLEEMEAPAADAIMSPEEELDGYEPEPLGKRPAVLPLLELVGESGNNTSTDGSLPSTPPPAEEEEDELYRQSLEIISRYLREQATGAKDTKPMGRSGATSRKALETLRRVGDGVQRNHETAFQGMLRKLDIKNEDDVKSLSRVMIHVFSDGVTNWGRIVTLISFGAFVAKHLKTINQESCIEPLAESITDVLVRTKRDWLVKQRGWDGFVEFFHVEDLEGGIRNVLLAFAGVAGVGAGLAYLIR
# Sequence of Bcl-XL (Q07817 whole entry, species assumed): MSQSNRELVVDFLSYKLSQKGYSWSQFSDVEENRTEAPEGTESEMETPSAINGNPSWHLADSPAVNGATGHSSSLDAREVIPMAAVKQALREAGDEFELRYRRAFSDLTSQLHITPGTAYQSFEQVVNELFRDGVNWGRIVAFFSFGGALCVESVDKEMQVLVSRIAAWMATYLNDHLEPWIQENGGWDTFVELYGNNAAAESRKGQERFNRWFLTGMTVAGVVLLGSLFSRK
# Sequence of Bfl-1/A1 (Q16548 whole entry): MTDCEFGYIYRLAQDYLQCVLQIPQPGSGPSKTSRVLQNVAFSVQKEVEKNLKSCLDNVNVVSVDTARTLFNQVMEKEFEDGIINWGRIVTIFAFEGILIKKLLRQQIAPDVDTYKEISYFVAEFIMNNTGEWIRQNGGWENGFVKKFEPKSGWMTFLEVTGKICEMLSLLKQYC
compound,measurement,setting,value
"CC1(C)CCC(CN2CCN(c3ccc(C(=O)NS(=O)(=O)c4ccc(NCC5CCOCC5)c([N+](=O)[O-])c4)c(Oc4cnc5[nH]ccc5c4)c3)CC2)=C(c2ccc(Cl)cc2)C1 [ABT-199, reference compound]",sensitivity of cells,[1]; [15],restored the sensitivity
same,sensitivity of cells,"[1]; exogenous WT Bcl2, 72 hr",restored sensitivity
same,thrombocytopenia,"[2]; in vivo, ref Souers et al., 2013",did not cause thrombocytopenia
CC1(C)CCC(c2ccc(Cl)cc2)=C(CN2CCN(c3ccc(C(=O)NS(=O)(=O)c4ccc(N[C@H](CCN5CCOCC5)CSc5ccccc5)c(S(=O)(=O)C(F)(F)F)c4)cc3)CC2)C1 [ABT-263],thrombocytopenia,"[2]; ref Schoenwaelder et al., 2011",can induce thrombocytopenia
CN(C)CC[C@H](CSc1ccccc1)Nc1ccc(S(=O)(=O)NC(=O)c2ccc(N3CCN(Cc4ccccc4-c4ccc(Cl)cc4)CC3)cc2)cc1[N+](=O)[O-] [ABT-737],thrombocytopenia,"[2]; ref Schoenwaelder et al., 2011",can induce thrombocytopenia
CCN(CC)C[C@@H](O)CNc1ccc(NC[C@H]2CO2)c2c1C(=O)c1ccccc1C2=O [BDA-366],binding,Bfl-1/A1,did not bind
same,sensitivity of Bax deficient vs WT MEF cells,MEF cells,significantly resistant
same,Cyt c release,[3]; WT Bcl2 mitochondria,induced Cyt c release
same,Cyt c release,[3]; ΔBH3 and vector-only control mitochondria,not from ΔBH3 and vector-only control cells
same,sensitivity of cells,[1]; [15],not to BDA-366
same,sensitivity of cells,"[1]; exogenous WT Bcl2, 72 hr",restored sensitivity
same,tumor growth,SCLC PDX,potently suppressed the growth
same,cell survival,H1299 cells; compound Bcl2 AAAA mutant,significantly prolonged cell survival
same,sensitivity of cells,H1299 cells; exogenous WT or single site Bcl2 mutants,enhanced sensitivity
same,Ki,D31A Bcl2 mutant,3.7 ± 0.91 nM
same,Ki,Bcl2 (WT),3.3 ± 0.73 nM
same,Ki,R12A Bcl2 mutant,4.3 ± 0.54 nM
same,effect of domain deletion on binding,Bcl2 ΔBH3,did not significantly affect
same,DNA binding (mobility shift),Plasmid pUC19 DNA,but not BDA-366 can bind to pUC19 DNA
same,body weight,[4]; 30mg/kg,Slight weight loss
same,"apoptosis in tumor tissues (active caspase 3, TUNEL)",[4]; [16],dose-dependent apoptosis induction
same,tumor growth,[4]; [16],dose-dependent repression
same,histopathology of normal tissues,[4]; 10–30mg/kg/d,no evidence of normal tissue toxicities
same,Bcl2 BH3 domain exposure in tumor tissues (QD-IHF),[4]; 14 days,dose-dependent exposure of the Bcl2 BH3 domain
same,active Bax (6A7) in tumor tissues (QD-IHF),[4]; 14 days,increased level of 6A7 binding to Bax
same,kidney (BUN) and liver (ALT and AST) function,"[4]; up to 30mg/kg/d, 14 days",in the normal range
same,"neutrophils, lymphocytes, RBC and platelets in blood","[4]; up to 30mg/kg/d, 14 days",no decreases
same,sensitivity after depletion of endogenous Bcl2,[5],significantly reduced sensitivity
same,Ki,[6],598.64 ± 0.12 nM
same,binding,Bcl2 ΔBH4,failed to bind
same,Bcl2/IP3R binding,H460 cells [7],reduced Bcl2/IP3R binding
same,Ca2+ release,H460 cells [7],increased Ca^2+ release
same,Bcl2 conformational change (BH3 domain exposure),[8],enhanced the ability of the Bcl2/BH3 domain-specific antibody to bind Bcl2
same,sensitivity of cell lines,"[9]; higher Bcl2: H157, Calu-1, H358, H460, H1975, DMS53, DMS153, H146, H69",more sensitive
same,sensitivity of cell lines,"[9]; lower or undetectable Bcl2: A549, H1299, DMS114, H128",less sensitive
same,sensitivity of normal cells,[10],less sensitive
same,Ki,H20A Bcl2 mutant,3.8 ± 0.47 nM
same,effect of domain deletion on binding,Bcl2 ΔBH2,did not significantly affect
same,binding,Bcl-XL,did not bind
same,LC3-II levels,"H460 cells [11]; 1 μM, 24h",Increased levels of LC3-II
same,percentage of GFP-LC3vac cells,H460 cells [11]; vs DMSO control,significantly increases
same,time to death (uniformly lethal),[12]; 40mg/kg/d i.p.,≤ 8 days
same,time to death (uniformly lethal),[12]; 50mg/kg/d i.p.,up to 12 days
same,lethality,"[12]; 10 to 30mg/kg/d i.p., up to 12 days",no death
same,Ki,M16A Bcl2 mutant,3.9 ± 0.31 nM
same,binding,Mcl-1,did not bind
same,direct Bax activation,purified recombinant Bax,is not a direct Bax activator
same,Bcl2-dependent Bax activation,"purified recombinant Bax; Bcl2 pre-treated with compound 1 hr, then Bax 2 hr",enhanced the ability of Bax to bind to 6A7 antibody
same,cell growth inhibition,H460 cells [13]; 100nM,partially inhibited
same,effect of domain deletion on binding,Bcl2 ΔBH1,did not significantly affect
same,Ki,D10A Bcl2 mutant,4.8 ± 0.41 nM
same,Ki,N11A Bcl2 mutant,4.1 ± 0.67 nM
same,Ki,E13A Bcl2 mutant,4.5 ± 0.71 nM
same,maximum therapeutic dose for continuous treatment,Single-dose MTD; 10% of single dose MTD,30~40 mg/kg
same,single dose MTD,"Single-dose MTD; mouse, in vivo",300 to 400 mg/kg
same,toxicity,Single-dose MTD; single dose 300mg/kg i.p.,did not cause weight loss or other toxicities
same,ALT and AST,Single-dose MTD; single dose 400mg/kg,significantly enhanced
same,pathological analysis of organs,Single-dose MTD; single dose 400mg/kg,microsteatosis in the liver and atrophic white pulp in the spleen
same,time to death,Single-dose MTD; single dose 400mg/kg,4 days
same,Ki,K17A Bcl2 mutant,4.2 ± 0.45 nM
"CO[C@H]1C[C@@H]2CC[C@@H](C)[C@@](O)(O2)C(=O)C(=O)N2CCCC[C@H]2C(=O)O[C@H]([C@H](C)C[C@@H]2CC[C@@H](OCCO)[C@H](OC)C2)CC(=O)[C@H](C)/C=C(\C)[C@@H](O)[C@@H](OC)C(=O)[C@H](C)C[C@H](C)/C=C/C=C/C=C/1C [RAD001, everolimus]",apoptosis in tumor tissues,"[4]; 1mg/kg/d, 14 days, alone",did not cause significant apoptosis
same,Bcl2 expression,H460 cells [14],up-regulation of Bcl2 in a dose-dependent manner
same,Bcl2 expression in post-treatment vs baseline tumor tissues,Bcl2,increased expression of Bcl2
same,Bcl2 expression,A549 cells,up-regulation of Bcl2 in a dose-dependent manner
same,cell growth inhibition,H460 cells [13]; 1nM,partially inhibited
COc1cc([C@@H]2c3cc4c(cc3[C@@H](O[C@@H]3O[C@@H]5CO[C@@H](C)O[C@H]5[C@H](O)[C@H]3O)[C@H]3COC(=O)[C@H]23)OCO4)cc(OC)c1O [VP-16],Bcl2 conformational change (BH3 domain exposure),[8],not a chemotherapeutic agent (i.e. VP-16 or cisplatin) can directly induce Bcl2 conformational change
"N.N.[Cl][Pt][Cl] [cisplatin, reference compound]",DNA binding (mobility shift),Plasmid pUC19 DNA,can bind to pUC19 DNA
same,Bcl2 conformational change (BH3 domain exposure),[8],not a chemotherapeutic agent (i.e. VP-16 or cisplatin) can directly induce Bcl2 conformational change
BAM7 [reference compound],direct Bax activation,purified recombinant Bax,can directly activate Bax
